Test results: US20070072903A1, “Altering the concentration of intracellular agents by p2x7 receptor modulation” (priority 2003, published 2007)

T1: P2X7 receptor (Mus musculus, UniProt Q9Z1M0)
T1 construct: Murine mesenteric lymph nodes (10^7/ml) were disaggregated in DMEM; from tissue; host or cells: murine mesenteric lymph node lymphocytes (CD4+, CD8+ T cells, B cells)
T1 sequence (Q9Z1M0 1-595): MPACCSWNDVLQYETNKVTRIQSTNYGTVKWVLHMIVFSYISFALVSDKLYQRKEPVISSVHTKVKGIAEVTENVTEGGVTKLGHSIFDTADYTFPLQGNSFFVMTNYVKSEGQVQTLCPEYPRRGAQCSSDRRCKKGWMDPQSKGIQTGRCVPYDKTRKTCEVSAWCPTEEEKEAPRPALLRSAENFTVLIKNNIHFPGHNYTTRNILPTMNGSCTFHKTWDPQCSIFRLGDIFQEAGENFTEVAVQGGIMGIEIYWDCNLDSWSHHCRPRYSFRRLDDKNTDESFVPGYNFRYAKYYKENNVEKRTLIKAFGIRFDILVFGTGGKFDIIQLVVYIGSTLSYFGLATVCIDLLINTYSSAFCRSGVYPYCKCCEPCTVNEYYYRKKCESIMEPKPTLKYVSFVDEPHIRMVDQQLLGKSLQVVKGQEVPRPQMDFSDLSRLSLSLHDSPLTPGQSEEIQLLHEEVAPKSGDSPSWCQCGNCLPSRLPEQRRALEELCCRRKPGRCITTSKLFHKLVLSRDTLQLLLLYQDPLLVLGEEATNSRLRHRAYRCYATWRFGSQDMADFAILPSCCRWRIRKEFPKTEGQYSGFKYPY

T2: P2X7 receptor (Rattus norvegicus, UniProt Q64663)
T2 construct: expressed in transfected cells; transiently co-transfected with MDR1 cDNA
T2 sequence (Q64663 1-595): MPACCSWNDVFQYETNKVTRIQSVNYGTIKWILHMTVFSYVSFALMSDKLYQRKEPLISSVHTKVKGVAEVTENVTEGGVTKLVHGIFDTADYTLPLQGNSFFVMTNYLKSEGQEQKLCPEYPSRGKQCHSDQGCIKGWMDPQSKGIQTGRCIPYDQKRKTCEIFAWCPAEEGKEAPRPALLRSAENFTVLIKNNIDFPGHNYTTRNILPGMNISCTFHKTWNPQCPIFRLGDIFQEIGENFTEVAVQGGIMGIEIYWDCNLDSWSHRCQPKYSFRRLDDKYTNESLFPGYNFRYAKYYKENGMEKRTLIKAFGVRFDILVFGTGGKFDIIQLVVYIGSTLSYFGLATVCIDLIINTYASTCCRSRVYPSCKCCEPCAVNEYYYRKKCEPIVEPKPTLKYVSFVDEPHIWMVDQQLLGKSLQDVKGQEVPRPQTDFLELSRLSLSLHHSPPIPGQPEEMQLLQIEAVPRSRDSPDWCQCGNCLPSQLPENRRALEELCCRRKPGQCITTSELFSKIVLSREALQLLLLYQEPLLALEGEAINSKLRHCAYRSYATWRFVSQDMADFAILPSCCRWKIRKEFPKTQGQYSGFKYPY


Assays:
P-gp [1] = experiment: BODIPY-taxol uptake in mixed mdr1a/b-deficient and parental CD8+ lymphocytes; type: cell-based, mouse; conditions: mdr-deficient versus wild type CD8+ lymphocytes
Description: Mice were between 6 and 14 weeks of age. When experiments utilised FVB.mdr1a/b^−/− mice, age-matched FVB mice were used.
In a further experiment, lymphocytes from mdr1a/b-deficient or parental mice (mdr1a/b^+/+) were labelled with anti-CD8^PE and anti-CD8^PERCP antibodies, respectively (to discriminate between CD8^+ cells from each mouse during subsequent analysis). […]

P-gp [2] = experiment: BODIPY-taxol uptake in HEK 293 cells with or without P2X7, transiently transfected with MDR1; type: cell-based; conditions: HEK 293 cells expressing both P-gp and P2X7 receptor
P-gp [3] = experiment: Rh123 uptake (P-gp activity) in murine lymphocytes, real-time flow cytometry; type: cell-based, mouse; conditions: 0.25 μM Rh123, 150 μM BzATP; CD4+, CD8+ and B cells
Description: Murine mesenteric lymph nodes (10^7/ml) were disaggregated in DMEM. To discriminate between different lymphocyte subsets, cells were stained with CD4^APC, CD4^CYCHROME, CD4^PE, CD4^FITC, CD8^APC, CD8^PE, CD8^PERCP, CD8^FITC, B220^APC (Becton Dickinson, Cailf.) antibodies as indicated. The fluorophore on antibodies used to identify CD4^+ and CD8^+T cells was varied in some experiments to avoid overlap between emission spectra of the antibody-conjugated fluorochromes and fluorescent transport substrates. Cells were washed with DMEM and analysed by flow cytometry (CellQuest software—Becton Dickinson). Live cells were gated by eye on the basis of forward scatter and side scatter. Lymphocytes lacking CD4 and CD8 were defined as B cells.
Lymphocytes were labelled with anti-CD4^CYCHROME and anti-CD8^APC antibodies to discriminate between CD4^+T cells, CD8^+T cells and B cells (CD4^− CD8^−). The lymphocytes were incubated with annexin V^PE, and then 0.25 μM Rh123 and 150 μM BzATP were added sequentially (as indicated in the Figures by arrows).

P2X7 receptor [4] = target: T1, P2X7 receptor; experiment: PS translocation (annexin V binding) in murine lymphocytes, real-time flow cytometry; type: cell-based
Description: Murine mesenteric lymph nodes (10^7/ml) were disaggregated in DMEM. To discriminate between different lymphocyte subsets, cells were stained with CD4^APC, CD4^CYCHROME, CD4^PE, CD4^FITC, CD8^APC, CD8^PE, CD8^PERCP, CD8^FITC, B220^APC (Becton Dickinson, Cailf.) antibodies as indicated. The fluorophore on antibodies used to identify CD4^+ and CD8^+T cells was varied in some experiments to avoid overlap between emission spectra of the antibody-conjugated fluorochromes and fluorescent transport substrates. Cells were washed with DMEM and analysed by flow cytometry (CellQuest software—Becton Dickinson). Live cells were gated by eye on the basis of forward scatter and side scatter. […]
To measure drug uptake the following fluorochromes were used (from Molecular Probes, Leiden, Netherlands, unless stated): 0.2 μM BODIPY-taxol (BT), 0.25 μM Rh123, 0.2 μM mitoxantrone (Sigma). PS exposure was monitored simultaneously in the same population of cells by increased binding of annexin V as follows. Cells were equilibrated with annexin V^FITC, annexin V^PE, or annexin V^CY5 (AV—Becton Dickinson, Cailf.) together with propidium iodide (PI) for four minutes, and analysed by flow cytometry on a FACScalibur machine using CellQuest software (Becton Dickinson, Cailf.). […] Cells were monitored for BT uptake or PS exposure continuously in real time for up to 15 minutes, as indicated. […]

[5] = injected into the hindpaw of rats at 100 nmol/50 μl; cited from earlier work
[6] = system: breast cancer resistance protein (abcg2); experiment: Mitoxantrone uptake in mdr1a/b-deficient lymphocytes; type: cell-based, mouse; conditions: 0.2 μM mitoxantrone
P-gp [7] = experiment: BODIPY-taxol uptake in NIH3T3-MDR and parental NIH3T3 cells, continuous FACS analysis; type: cell-based, mouse; conditions: 175 μM BzATP, which lack the P2X7 receptor
Procedure: To measure drug uptake the following fluorochromes were used (from Molecular Probes, Leiden, Netherlands, unless stated): 0.2 μM BODIPY-taxol (BT), 0.25 μM Rh123, 0.2 μM mitoxantrone (Sigma). […] Baseline fluorescence was established for approximately one minute prior to addition of 150 μM (unless otherwise stated) 2′-3′-O-(4-benzoylbenzoyl)-adenosine 5′-triphosphate (BzATP, Sigma). Cells were monitored for BT uptake or PS exposure continuously in real time for up to 15 minutes, as indicated.
BODIPY-taxol (BT) and 175 μM BzATP were added to NIH3T3-MDR and parental NIH3T3 cells at times indicated by arrows. BT uptake was monitored by continuous FACS analysis, as an increase in fluorescence as a function of time.

[8] = system: mdr1a/b-deficient CD4+ and CD8+ T cells; experiment: BODIPY-taxol uptake in mdr1a/b-deficient T cells; type: cell-based, mouse; conditions: 175 μM BzATP
Procedure: To measure drug uptake the following fluorochromes were used (from Molecular Probes, Leiden, Netherlands, unless stated): 0.2 μM BODIPY-taxol (BT), 0.25 μM Rh123, 0.2 μM mitoxantrone (Sigma). PS exposure was monitored simultaneously in the same population of cells by increased binding of annexin V as follows. Cells were equilibrated with annexin V^FITC, annexin V^PE, or annexin V^CY5 (AV—Becton Dickinson, Cailf.) together with propidium iodide (PI) for four minutes, and analysed by flow cytometry on a FACScalibur machine using CellQuest software (Becton Dickinson, Cailf.). Baseline fluorescence was established for approximately one minute prior to addition of 150 μM (unless otherwise stated) 2′-3′-O-(4-benzoylbenzoyl)-adenosine 5′-triphosphate (BzATP, Sigma). Cells were monitored for BT uptake or PS exposure continuously in real time for up to 15 minutes, as indicated. Continuous line graphs of changes in annexin V binding and fluorochrome uptake were plotted using FCSPress software (FCSPress.com, Cambridge, UK).
Mitoxantrone (Mx) or Mx plus BzATP, were added as indicted by arrows. Mitoxantrone uptake was measured as an increase in mean (±S.E.) fluorescence (FL-4 channel). […] BODIPY-taxol uptake was measured as an increase in mean (±S.E.) fluorescence (FL-1 channel). […] Only the responses of live cells (i.e. those excluding PI) were subsequently analysed.

[9] = system: plasma membrane permeability; experiment: Propidium uptake after BzATP stimulation (non-specific membrane permeability); type: cell-based, mouse; conditions: BzATP-mediated stimulation; data omitted for brevity
P2X7 receptor [10] = type: cell-based; conditions: HEK 293 cells expressing P-gp but lacking P2X7 receptors
Procedure: (§1) NIH 3T3 cells stably transfected with the human MDR1 gene (Ueda et al, 1987 Proc. Natl. Acad. Sci. USA 84, 3004-3008) were a gift from Michael Gottesman (NIH, Bethesda) and were maintained in 1 μg/ml colchicine in Dulbecco's modified Eagle's medium (DMEM—Sigma). HEK 293 cells stably transfected with rP2X7 have been described elsewhere (Wilson et al, 2002 J. Biol. Chem. 277, 34017-34023). Transient transfection of HEK293 cells was performed using polyethyleneimine (Sigma), as described previously (Dixon et al, 2000 Hum. Mol. Genet. 9, 1209-1217). pMDR1-wt, which encodes wild-type P-gp, has also been described previously (Blott et al, 1999 EMBO J. 18, 6800-6808). Expression of the MDR1 gene product, P-gp, on transfected cells was determined by labelling of cells with UIC2^PE in the presence of cyclosporine A (Sigma), as described by Mechetner et al, (1997 Proc. Natl. Acad. Sci. 94, 12908-12913).
(§2) To measure drug uptake the following fluorochromes were used (from Molecular Probes, Leiden, Netherlands, unless stated): 0.2 μM BODIPY-taxol (BT), 0.25 μM Rh123, 0.2 μM mitoxantrone (Sigma). PS exposure was monitored simultaneously in the same population of cells by increased binding of annexin V as follows. […] Cells were monitored for BT uptake or PS exposure continuously in real time for up to 15 minutes, as indicated. […]

P2X7 receptor [11] = target: T2, P2X7 receptor; type: cell-based; conditions: HEK 293 cells expressing both P-gp and P2X7 receptor
Procedure: as §1, §2

P2X7-HEK 293 cells = experiment: BODIPY-taxol uptake in HEK 293 and P2X7-HEK 293 cells; type: cell-based; conditions: 150 μM BzATP
Procedure: as §1, §2

P-gp [12] = experiment: Annexin V trapping of PS after brief BzATP stimulation, BODIPY-taxol uptake in mdr1a/b-deficient and parental lymphocytes; type: cell-based, mouse; conditions: BzATP 45 seconds, washed, annexin V for 30 minutes to trap PS in the outer leaflet
Procedure: In this example, the inventors compared the uptake of BODIPY-taxol by parental and mdr1a/b-deficient lymphocytes, briefly stimulated with BzATP either in the continuous presence of annexin V to ‘trap’ PS in the outer leaflet, or with annexin V added only shortly before acquisition. The results are shown in FIGS. 4A-D. The experiments were performed as described below. Lymphocytes from mdr1a/b-deficient or parental mice (mdr1a/b^+/+) were labelled with anti-CD8^PE and anti-CD8^CY antibodies, respectively (to discriminate between CD8^+ cells from each mouse during subsequent analysis). […] BODIPY-taxol uptake was then measured by real-time flow cytometry. Reduced BT uptake indicates enhanced P-gp activity; increased annexin^CY5 binding indicates increased PS translocation from the inner to outer leaflet of the membrane. […] As PS exposure in samples stained with annexin V for four minutes immediately following stimulation (not shown) was equivalent to that in cells incubated for 30 minutes, PS trapping by annexin V appeared to be effectively complete.

Molecule | BT uptake following BzATP treatment (P-gp [1]) | BODIPY-taxol uptake (P-gp inhibition) (P-gp [2]) | P-gp activity (uptake of Rh123) (P-gp [3]) | PS translocation (annexin V binding) (P2X7 receptor [4]; 150 μM BzATP, CD4+ T cells, CD8+ T cells and B cells) | PS translocation (P2X7 receptor [4]; mdr1a/b-deficient lymphocytes) | toxicity [5] | uptake of mitoxantrone [6] | P-gp activity (BT accumulation) (P-gp [7]) | rate of uptake of BODIPY-taxol [8] | uptake of propidium ions [9] | PS translocation (P2X7 receptor [10]) | PS translocation (P2X7 receptor [11]) | rate of uptake of BODIPY-taxol (P2X7-HEK 293 cells) | restoration of P-gp activity (P-gp [12])
2′-3′-O-(4-benzoylbenzoyl)-adenosine 5′-triphosphate [BzATP] | rapidly reached equivalence in the mdr-deficient and wild type cells | increased BODIPY-taxol uptake | order of responsiveness was CD4^+>CD8^+>>B cells | stimulated PS translocation with the order of responsiveness CD4^+ cells>CD8^+ T cells>>B cells | induced PS translocation | non-toxic | markedly increased uptake of mitoxantrone | did not inhibit P-gp activity and thus did not increase BT accumulation | increased the rate of uptake | did not result in an increased uptake of propidium ions | neither induced PS translocation | induced PS translocation | increased the rate of uptake | 
annexin V: substance which binds to phosphatidylserine and retains it in the outer leaflet (protein, UniProt P08758 2-320, looked up) Annexin A5: AQVLRGTVTDFPGFDERADAETLRKAMKGLGTDEESILTLLTSRSNAQRQEISAAFKTLFGRDLLDDLKSELTGKFEKLIVALMKPSRLYDAYELKHALKGAGTNEKVLTEIIASRTPEELRAIKQVYEEEYGSSLEDDVVGDTSGYYQRMLVVLLQANRDPDAGIDEAQVEQDAQALFQAGELKWGTDEEKFITIFGTRSVSHLRKVFDKYMTISGFQIEETIDRETSGNLEQLLLAVVKSIRSIPAYLAETLYYAMKGAGTDDHTLIRVMVSRSEIDLFNIRKEFRKNFATSLYSMIKGDTSGDYKKALLLLCGEDD |  |  |  |  |  |  |  |  |  |  |  |  |  | prevents the restoration of P-gp activity
